Tests used:
SH-SY5Y = assay: Antioxidant activity against tert-butyl hydroperoxide-induced ROS evoked cell death in human SH-SY5Y cells; assay type: functional, cell-based
Acetylcholinesterase = Acetylcholinesterase (Homo sapiens, UniProt P22303)
Description: Inhibition of human recombinant AChE by Ellman's method

Cholinesterase = Cholinesterase (Homo sapiens, UniProt P06276); assay: Inhibition of human serum BChE by Ellman's method
[1] = molecular target: Glutamate NMDA receptor; GRIN1/GRIN2B (Homo sapiens, UniProt Q05586+Q13224)
Glutamate NMDA receptor; GRIN1/GRIN2B, sequence (Q13224 whole entry, other chains not shown): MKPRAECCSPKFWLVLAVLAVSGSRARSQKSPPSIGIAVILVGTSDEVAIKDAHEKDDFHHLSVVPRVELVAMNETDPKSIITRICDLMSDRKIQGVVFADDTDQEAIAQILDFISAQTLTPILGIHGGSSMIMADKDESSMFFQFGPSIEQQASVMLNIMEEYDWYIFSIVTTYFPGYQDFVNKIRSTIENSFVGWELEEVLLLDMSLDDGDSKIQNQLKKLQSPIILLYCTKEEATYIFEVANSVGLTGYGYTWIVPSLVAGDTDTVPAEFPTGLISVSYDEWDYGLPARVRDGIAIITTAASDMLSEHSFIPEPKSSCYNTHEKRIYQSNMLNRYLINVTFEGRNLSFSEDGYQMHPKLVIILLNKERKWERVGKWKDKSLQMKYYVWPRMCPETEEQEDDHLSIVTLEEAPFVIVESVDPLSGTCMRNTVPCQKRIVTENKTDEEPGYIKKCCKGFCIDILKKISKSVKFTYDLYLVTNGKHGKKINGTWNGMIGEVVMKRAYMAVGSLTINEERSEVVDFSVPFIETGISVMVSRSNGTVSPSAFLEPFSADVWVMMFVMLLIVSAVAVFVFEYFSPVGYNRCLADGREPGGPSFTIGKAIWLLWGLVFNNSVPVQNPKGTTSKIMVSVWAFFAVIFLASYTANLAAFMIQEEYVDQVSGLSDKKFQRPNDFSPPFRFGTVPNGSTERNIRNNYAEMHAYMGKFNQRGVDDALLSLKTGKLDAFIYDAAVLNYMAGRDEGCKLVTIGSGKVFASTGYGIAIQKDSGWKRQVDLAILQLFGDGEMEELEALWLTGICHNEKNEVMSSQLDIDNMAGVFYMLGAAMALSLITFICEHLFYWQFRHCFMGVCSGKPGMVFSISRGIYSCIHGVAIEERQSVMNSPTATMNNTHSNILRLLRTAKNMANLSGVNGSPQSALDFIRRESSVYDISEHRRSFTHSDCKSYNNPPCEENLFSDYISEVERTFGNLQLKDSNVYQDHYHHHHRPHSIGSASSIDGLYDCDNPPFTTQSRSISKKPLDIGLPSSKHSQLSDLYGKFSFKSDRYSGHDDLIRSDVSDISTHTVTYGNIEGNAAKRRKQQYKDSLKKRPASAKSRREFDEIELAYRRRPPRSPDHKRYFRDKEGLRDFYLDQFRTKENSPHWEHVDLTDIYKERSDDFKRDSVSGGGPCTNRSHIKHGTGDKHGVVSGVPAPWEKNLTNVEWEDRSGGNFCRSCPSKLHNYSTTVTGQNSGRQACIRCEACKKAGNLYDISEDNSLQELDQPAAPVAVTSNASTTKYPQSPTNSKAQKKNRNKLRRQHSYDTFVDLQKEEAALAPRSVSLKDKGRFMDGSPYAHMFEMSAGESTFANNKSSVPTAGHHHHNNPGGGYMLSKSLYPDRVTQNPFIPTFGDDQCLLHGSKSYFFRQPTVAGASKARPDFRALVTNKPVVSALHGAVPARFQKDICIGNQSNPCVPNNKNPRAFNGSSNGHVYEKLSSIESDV
Description: Inhibition of NMDA NR1/NR2B receptor expressed in xenopus oocytes assessed as inhibition of NMDA and glycine-induced current response by two-electrode voltage clamp assay

Cholinesterase, sequence (P06276 whole entry): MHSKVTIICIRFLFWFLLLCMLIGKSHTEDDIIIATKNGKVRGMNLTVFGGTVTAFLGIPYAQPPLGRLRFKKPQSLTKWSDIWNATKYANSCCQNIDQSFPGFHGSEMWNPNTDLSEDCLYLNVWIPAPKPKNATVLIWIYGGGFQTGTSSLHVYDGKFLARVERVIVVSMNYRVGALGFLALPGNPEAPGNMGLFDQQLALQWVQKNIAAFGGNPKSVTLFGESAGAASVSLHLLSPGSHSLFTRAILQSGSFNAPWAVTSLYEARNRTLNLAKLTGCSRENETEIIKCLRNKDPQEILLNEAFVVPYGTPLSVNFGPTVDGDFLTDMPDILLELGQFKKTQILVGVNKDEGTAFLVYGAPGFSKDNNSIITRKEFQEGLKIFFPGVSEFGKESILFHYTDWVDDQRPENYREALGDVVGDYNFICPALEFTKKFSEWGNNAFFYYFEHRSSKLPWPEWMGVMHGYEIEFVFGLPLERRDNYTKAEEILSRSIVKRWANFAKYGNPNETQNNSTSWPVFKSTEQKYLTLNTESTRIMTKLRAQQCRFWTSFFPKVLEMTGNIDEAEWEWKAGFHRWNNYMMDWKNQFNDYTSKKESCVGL
Acetylcholinesterase, sequence (P22303 whole entry): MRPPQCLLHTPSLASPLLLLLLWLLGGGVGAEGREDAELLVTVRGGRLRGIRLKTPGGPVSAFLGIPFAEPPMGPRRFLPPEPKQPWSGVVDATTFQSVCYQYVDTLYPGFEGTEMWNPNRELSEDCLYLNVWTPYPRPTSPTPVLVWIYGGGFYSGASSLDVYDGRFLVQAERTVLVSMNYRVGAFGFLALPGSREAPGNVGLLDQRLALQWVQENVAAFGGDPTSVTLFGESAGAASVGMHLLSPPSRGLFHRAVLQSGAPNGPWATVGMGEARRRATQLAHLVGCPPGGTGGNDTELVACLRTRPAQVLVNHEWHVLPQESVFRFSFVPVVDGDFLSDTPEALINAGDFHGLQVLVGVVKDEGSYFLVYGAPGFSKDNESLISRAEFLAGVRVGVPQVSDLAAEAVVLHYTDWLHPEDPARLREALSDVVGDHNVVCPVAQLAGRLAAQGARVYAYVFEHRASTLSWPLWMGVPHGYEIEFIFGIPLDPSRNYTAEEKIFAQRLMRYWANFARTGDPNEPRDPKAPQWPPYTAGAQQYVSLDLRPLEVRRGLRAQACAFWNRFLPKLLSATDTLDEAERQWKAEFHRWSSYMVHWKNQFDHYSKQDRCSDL

Oc1cccc2[nH]c3ccccc3c12
IC50 (SH-SY5Y): 70 nM

Clc1ccc2c(NCCCNCCCCCOc3cccc4[nH]c5ccccc5c34)c3c(nc2c1)CCCC3
IC50 (Acetylcholinesterase): 1.54 nM | IC50 (Cholinesterase): 189 nM | IC50 [1]: 18200 nM

Clc1ccc2c(NCCCNCCCCCCOc3cccc4[nH]c5ccccc5c34)c3c(nc2c1)CCCC3
IC50 (Acetylcholinesterase): 2.57 nM | IC50 (Cholinesterase): 137 nM | IC50 [1]: 13000 nM

Clc1ccc2c(NCCCNCCCCOc3cccc4[nH]c5ccccc5c34)c3c(nc2c1)CCCC3
IC50 (Acetylcholinesterase): 1.65 nM | IC50 (Cholinesterase): 211 nM | IC50 [1]: 30300 nM

Clc1ccc2c(NCCCNCCCOc3cccc4[nH]c5ccccc5c34)c3c(nc2c1)CCCC3 [CARBACRINE]
IC50 (Acetylcholinesterase): 2.15 nM | IC50 (SH-SY5Y): 23000 nM | IC50 (Cholinesterase): 296 nM | IC50 [1]: 740 nM

Cc1c(C)c2c(c(C)c1O)CCC(C)(C(=O)O)O2 (stereo not given) [TROLOX]
IC50 (SH-SY5Y): 49600 nM

Source: ChEMBL document CHEMBL1155822, “Inhibition of acetylcholinesterase, beta-amyloid aggregation, and NMDA receptors in Alzheimer's disease: a promising direction for the multi-target-directed ligands gold rush” (J Med Chem, 2008)
